Reference: patent US4870074A, “Substituted benzamide derivatives, for enhancing gastrointestinal motility” (priority 1986, dated 1989)

Experiments:
central nervous system = assay: Test 3: effect on the central nervous system (CNS effect), Irwin observation; conditions: 100 mg/kg, p.o., mouse, 2 hours observation
Description: Male ddY mice, weighing 18-25 g, were used in groups of 3 animals each. […] Psychopharmacologia, 13, 222-227 (1968)], comprehensive observation of behavioral and physiologic states were carried out for 2 hours after the oral treatment with 100 mg/kg of the test compound, dissolved or suspended in a 0.5% tragacanth solution. Liability of the test compounds to the central nervous system effect was expressed with the following marks, according to the total sum of potencies for the individually analyzed effects, such as catalepsy, ptosis, hypolocomotin, etc.

gastric emptying = assay: Test 1: gastric emptying enhancing activity (phenol red test meal); type: in vivo, Male Wistar rats; conditions: po, 0.25 h; 2.0 mg/kg p.o., 60 min before test meal, rat; read-out: Gastric emptying enhancing activity, Increase (emptying rate vs control)
Description: The test was carried out according to the method of Scarpignato et al. [cf. Arch. int. Pharmacodyn., 246, 286-294 (1980)].
Male Wistar rats, weighing 130-150 g, were fasted for 18 hours before experimentation, and 1.5 ml of a test meal (phenol red 0.05% in a 1.5% aqueous methylcellulose solution) was given by gastric tube. Fifteen minutes after administration of the meal the stomach was removed and the amount of phenol red remaining in the stomach was measured.
The test compounds, dissolved or suspended in a 0.5% tragacanth solution, were orally administered 60 minutes before administration of the test meal. The rate of gastric emptying was calculated according to the amount of phenol red remaining in the stomach, and the activity of the test compounds was expressed in terms of increase in the emptying rate from the control. The number of animals used was 5 for the control and each dose of metoclopramide hydrochloride monohydrate and 4 for each dose of the other test compounds.

`C=CCCOc1cc(N)c(Cl)cc1C(=O)NCC1CN(Cc2ccccc2)CCO1` (centres unmarked) [Example 119] was tested, and the CNS effect (central nervous system) was “-” and the change in vivo at 2 mg/kg (gastric emptying) was 48.4%.
